Measurements from patent US10285994B2, “Method of preventing or treating osteoporosis by neddylation inhibitor” (Chang Gung University, priority 2017, dated 2019).

Legend:
[1] = tested on: ovariectomized (OVX) mice; assay: Three-point bending test of femurs of OVX + sRANKL mice; format: in vivo, mouse; conditions: 10 mg/kg i.p. once daily for 2 weeks
Text: FIGS. 7A-7D are histograms respectively depicting the mechanical properties of femurs in control, OVX, OVX+RANKL, and OVX+RANKL+MLN4924 groups according to example 5.2 of the present disclosure, including modulus (FIG. 7A), strain at break (FIG. 7B), stress at yield (FIG. 7C), and load at break (FIG. 7D). Values are expressed as mean±SD, N=6 per group. *p<0.05; **p<0.01.
All experimental procedures were approved by the Institutional Animal Care and Use Committee of the Chang Gung Memorial Hospital at Chiayi and complied with the Guideline for the Care and Use of Laboratory Animals available through the National Academy of Sciences (IACUC number: 2013100102 and 2015103001). All efforts were made to minimize the suffering of the animals. C57BL/6J female mice (6-8 weeks old; obtained from BioLasco in Taiwan) were operated ovariectomy surgery (OVX). 48 hours later of OVX operation, sRANKL (1 mg/kg) or saline was injected intraperitoneally once daily for two days followed by intraperitoneal injection of MLN4924 (10 mg/kg) once daily for 2 weeks. Mice were sacrificed with CO2 asphyxiation, and the tibias and femurs were isolated therefrom. The tibias were subject to histochemistry assay, and the femurs were subject to bending test and tomographic analysis by MTS (Testresources, Shakopee, Minn.) and Skyscan 1272 (Bruker, Kontich, Belgium), respectively. Serum levels of cross linked C-telopeptide of type I collagen (CTX-1) (CEA665Mu) was measured by specific ELISA kit (USCN life science incorporation, Wuhan, Hubei, China).
The femurs were tested to failure by three-point bending on an MTS Synergie 200 (Testresources, Shakopee, Minn.). The speed of load application was set as 1 mm/min with preload of 1N, load cell of 500N, settling time of 30 seconds and distance between the points of 10 mm. Force-displacement data were plotted from the structural properties, including modulus, load at break, stress at yield and strain at yield.
Bone loss results in bone fragile, thus rendering bone being easier to break. In this example, mice were first treated with OVX or OVX+sRANKL to cause bone loss, and then MLN4924 was administered. The femurs of mice were then subject to shaft fracture testing by three-point bending so as to evaluate the biomechanical properties thereof.

JNK (pJNK) = assay: Western blot, sRANKL-induced JNK phosphorylation in RAW264.7 cells; format: cell-based, mouse; conditions: RAW264.7, 30 min pre-treatment, sRANKL 50 ng/ml, FIG. 3A-3B
Description: (§1) FIGS. 3A-3D are data collected from Western blot analysis that respectively depict the expression of specified protein extracted from the RAW264.7 cells, which are pre-treated with specified concentrations of MLN4924 for 30 minutes followed by the stimulation of sRANKL (50 ng/ml) according to example 2 of the present disclosure. FIG. 3A: the time course effect of MLN4924 on the phosphorylations of ERK (pERK), P38 (pP38) and JNK (pJNK). FIG. 3B: the dose effect of MLN4924 on the phosphorylations of ERK (pERK), P38 (pP38) and JNK (pJNK). FIG. 3C: the time course effect of MLN4924 on the expression of NFATc-1. FIG. 3D: the dose effect of MLN4924 on the expression of NFATc-1. Mock: untreated control; R: sRANKL; M: MLN4924.
(§2) The RAW264.7 cells were starved with serum-free medium for six hours and then treated with the specified treatments. At indicated time points, the cells were washed with cold phosphate-buffered saline (PBS) and lysed in RIPA buffer containing complete protease inhibitor cocktail (Roche). The cell lysates were separated by SDS-PAGE followed by Western blotting with the indicated antibodies, including NEDD8, APPBP1, UBA3.
(§3) Specifically, the inhibitory effect increased with an increase in the MLN4924 concentration (FIG. 3B).

NFATc-1 = assay: Western blot, sRANKL-induced NFATc-1 expression in RAW264.7 cells; format: cell-based, mouse; conditions: RAW264.7, 30 min pre-treatment, sRANKL 50 ng/ml, FIG. 3C-3D
Description: as §1, §2
In addition, ectopic expression of NFATc-1 in the pre-osteoclasts rendered the pre-osteoclast differentiated to osteoclasts in the absence of RANKL. […]

ERK (pERK) = assay: Western blot, sRANKL-induced ERK phosphorylation in RAW264.7 cells; format: cell-based, mouse; conditions: RAW264.7, 30 min pre-treatment, sRANKL 50 ng/ml, FIG. 3A-3B
Description: as §1, §2, §3

MC3T3-E1 cells [2] = assay: Osteoblast survival, crystal violet staining of MC3T3-E1 cells; format: cell-based, mouse; conditions: MC3T3-E1, osteoblast differentiation medium, 21 days, FIG. 4A
Description: (§4) FIGS. 4A-4B respectively depict the osteogenesis of mouse pre-osteoblast cell line MC3T3-E1 cells incubated in the differentiation medium containing specified concentrations of MLN4924 for 21 days according to example 3 of the present disclosure. FIG. 4A: the growth of MC3T3-E1 cells during osteogenesis is analyzed by crystal violet staining. FIG. 4B: the osteogenesis of MC3T3-E1 cells on day 21 is analyzed by measuring Alizarin Red S stain. Diff: osteoblast differentiation medium. MLN: MLN4924.
(§5) The mouse pre-osteoblast cell line MC3T3-E1 cells were cultured in osteoblast differentiation medium with or without MLN4924 for 21 days.

MC3T3-E1 cells [3] = assay: Osteogenesis, Alizarin Red S stain of MC3T3-E1 cells; format: cell-based, mouse; conditions: MC3T3-E1, osteoblast differentiation medium, 21 days, FIG. 4B
Description: as §4, §5

Q: With `NS(=O)(=O)OC[C@@H]1C[C@@H](n2ccc3c(N[C@H]4CCc5ccccc54)ncnc32)C[C@@H]1O` [MLN4924, (1S,2S,4R)-4-(4-((1S)-2,3-Dihydro-1H-inden-1-ylamino)-7H-pyrrolo(2,3-d)pyrimidin-7-yl)-2-hydroxycyclopentyl) methyl sulphamate] as the compound, how does the femur modulus ([1]; FIG. 7A) read?
A: The femur modulus was “prevented the levels of these parameters from dropping”.

Q: And the “femur strain at break” value ([1]; FIG. 7B)?
A: Its value is “prevented the levels of these parameters from dropping”.

Q: What about the “femur stress at yield” value ([1]; FIG. 7C) of the same compound?
A: The value was “prevented the levels of these parameters from dropping”.

Q: And the “femur load at break” value ([1]; FIG. 7D)?
A: The value was “prevented the levels of these parameters from dropping”.

Q: And the “sRANKL-upregulated phosphorylation of JNK (pJNK)” value (JNK (pJNK))?
A: The value was “inhibited”.

Q: What about the “expression of NFATc-1 induced by sRANKL” value (NFATc-1) of the same compound?
A: The value was “significant suppressed”.

Q: And the “sRANKL-upregulated phosphorylation of ERK (pERK)” value (ERK (pERK))?
A: Its value is “inhibited”.

Q: And the “survival of osteoblasts (crystal violet)” value (MC3T3-E1 cells [2])?
A: The value was “neither the survival of osteoblasts (FIG. 4A), nor the differentiation of osteoblasts (FIG. 4B) was affected”.

Q: And the “differentiation of osteoblasts (Alizarin Red S)” value (MC3T3-E1 cells [3])?
A: The value was “neither the survival of osteoblasts (FIG. 4A), nor the differentiation of osteoblasts (FIG. 4B) was affected”.
